Experimental data as given in patent US4683229A, “6-halo-9-alkenyleneoxy-3-alkyl-2,3,4,5-tetrahydro-(1H-3)-benzazepines and their use as selective alpha-adrenergic receptor antagonists” (SmithKline Beckman Corporation, priority 1986, dated 1987).
“Also recorded” adds a separate entry of the source. Like-named read-outs stand apart in the source and are kept apart here.

Tests used:
[1] = tested on: alpha1 adrenoceptor (rabbit aorta); assay: Alpha1 activity in rabbit aorta segments: antagonism of norepinephrine contraction; format: cell-based; conditions: for Kb: read-out: KB alpha1 Aorta, norepinephrine agonist
Method: Alpha1 activity was determined using the rabbit aorta. Male New Zealand White rabbits (2-4 Kg) were euthanized by cervical concussion. A 4 cm portion of the thoracic aorta was removed and placed in a dish of cold (10° C.) Krebs-Hensleit solution. The tissue was cleaned of fat and connective tissue and cut into segments of approximately 3 mm in length. These segments were suspended in 10 ml tissue baths via hangers constructed of 0.25 mm tungsten wire. One hanger was fixed to a support in the bath, the other attached via silk thread to a force-displacement transducer.
Tissue segments were equilibrated for 2 hours prior to drug testing, during which time basal tension was maintained at 2 gm. Tissues were washed at 30 minute intervals during this equilibration period. The Krebs-Hensleit solution contained cocaine (6 μM) to block neuronal uptake and propranolol (1 μM) to block beta-adrenoceptors. Tissues were usually challenged once with norepinephrine (0.1 μM) during the equilbration period to check for viability.
A cumulative concentration-response curve to norepinephrine was obtained in each aortic segment. Following washout of norepinephrine, the alpha adrenoceptor antagonist to be tested was added to the bath. After the tissue had been in contact with the antagonist for 30-60 minutes, the norepinephrine concentration response-curve was repeated in the presence of antagonist. The tissue was then washed again, and a tenfold higher concentration of antagonist added. Following equilibration (30-60 minutes), a third norepinephrine concentration-response curve was determined in the presence of the antagonist.
(§1) The receptor dissociation constant (KB) for the antagonist was determined using the relationship [formula] (Furchgott, R. F., Handbook of Experimental Pharmacology, eds. Eichler, et al., pp. 283-335 (Springer 1972)). The KB value obtained at each antagonist concentration was averaged to obtain a mean KB for each experiment.
(§2) The results are expressed in nanomolar concentrations. Compound (D) is the prior art compound mentioned above; compounds (E) and (F) are compounds of the present invention.

[2] = tested on: alpha3 receptor (dog saphenous vein); assay: Alpha3 activity in dog saphenous vein: shift of BHT-920 dose-response curve; format: cell-based; conditions: for antagonism in the alpha3 test system (in words) / Kb: dog saphenous vein; for Kb: read-out: KB alpha3 DSV, BHT-920 agonist; for separation in the concentrations producing alpha2 and alpha3 effects: guinea pig vas deferens (alpha2) vs dog saphenous vein (alpha3)
Method: as §1
The dog saphenous vein (DSV) was used as the test system for measuring activity of the compounds at the alpha3 receptor. This test system has been shown a suitable preparation in which to characterize postsynaptic alpha2 (alpha3) adrenoceptors. Sullivan, A. T. and G. M. Drew, Arch. Pharmacol. 314:249-58 (1980). This test system is prepared by removing the lateral saphenous vein from an anesthetized dog and cutting the vein into segments of 10 mm in length. Each segment then is cut into a helical strip and mounted, in a tissue bath, between a stationary tissue holder and transducer with which isometric contractions are recorded as changes in grams of tension. Additional details of this methodology are found in Fowler, P. J., et al., J. Pharmacol. Exp. Ther. 229:712-18 (1984).
The alpha3 activity of the compounds of interest is determined by measuring shifts in the dose-response curve of a specific agonist induced by the tested compounds. The alpha2 specific agonist, BHT-920, was used in testing the compounds listed in Table I. Data are reported as KB, defined above.
as §2

[3] = molecular target: T1, alpha2 receptor (guinea pig left atrium) (Cavia porcellus, UniProt Q60474); assay: Alpha2 activity in isolated, superfused guinea pig left atrium: antagonism of clonidine; format: cell-based; conditions: for alpha2 effects in guinea pig atrium (in words): up to the highest tested concentration
T1 construct: The left atrium is separated, dissected free of extraneous tissue; from tissue; host or cells: isolated left atrium of male guinea pig
T1 sequence (Q60474 1-464): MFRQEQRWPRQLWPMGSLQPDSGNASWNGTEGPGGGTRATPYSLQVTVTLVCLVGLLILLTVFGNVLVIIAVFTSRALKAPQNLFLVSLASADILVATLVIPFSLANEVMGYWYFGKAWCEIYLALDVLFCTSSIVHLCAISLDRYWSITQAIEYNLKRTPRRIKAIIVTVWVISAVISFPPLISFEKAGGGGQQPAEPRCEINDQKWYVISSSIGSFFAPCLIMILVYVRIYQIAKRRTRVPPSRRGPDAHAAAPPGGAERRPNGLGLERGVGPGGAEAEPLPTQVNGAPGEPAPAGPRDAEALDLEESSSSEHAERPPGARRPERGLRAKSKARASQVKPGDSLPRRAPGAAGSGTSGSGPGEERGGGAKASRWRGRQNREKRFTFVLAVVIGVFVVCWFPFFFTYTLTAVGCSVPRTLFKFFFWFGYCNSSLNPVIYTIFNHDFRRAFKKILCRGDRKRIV
Method: as §1
One of the two systems employed to determine alpha2 activity of the compounds was the isolated, superfused guinea pig left atrium. Briefly, the heart is removed from a pentobarbital-anesthetized male guinea pig. The left atrium is separated, dissected free of extraneous tissue and mounted in a 2 ml superfusion chamber. The tissue is paced at 60 pulse/minute and the sympathetic nerves excited at 6 minute intervals by field stimulation. The response to nerve stimulation is measured as the difference in contractile force between the basal contraction and peak contraction following a nerve stimulation. A concentration-response curve for clonidine (a known alpha2 […]) is prepared by administering increasing concentrations of clonidine following each successive stimulation. The tissue then is superfused for thirty minutes with the alpha-adrenoceptor antagonist to be tested and the clonidine concentration-effect curve is repeated in the presence of antagonist. Data are reported as KB, defined above. Additional details of this test system are found in Hieble, J. P. and R. G. Pendleton, Arch. Pharmacol., 309:217-224 (1979).
as §2

[4] = molecular target: T2, alpha2 receptor (guinea pig vas deferens) (Cavia porcellus, UniProt Q60474); assay: Alpha2 activity in isolated, superfused guinea pig vas deferens: stimulated/basal 3H-norepinephrine release; format: cell-based; conditions: for alpha2 effects in guinea pig vas deferens (in words): up to the highest tested concentration
T2 construct: both vasa deferentia were removed and placed in a dish; from tissue; host or cells: isolated vas deferens of male guinea pigs
T2 sequence (Q60474 1-464): T1 sequence (Q60474 1-464)
Excerpt: The second system utilized in determining the alpha2 activity of the compounds of interest is the isolated, superfused guinea pig vas deferens (Vas Def). From male (300-600 g) guinea pigs sacrificed by administration of a lethal amount of pentobarbital, both vasa deferentia were removed and placed in a dish containing a cold nutrient-buffer solution. The tissue was cleaned and the fibrous sheath removed gently. The ends were trimmed to yield segments about 4 cm in length and 4-0 silk ties attached to each end. The vasa deferentia then were incubated in 10 ml of nutrient-buffer solution containing […] of ^3 H-norepinephrine. Tissue was incubated at 37° C. for 30 minutes with continuous gassing with 95% O2, 5% CO2. After incubation, the tissue was mounted in a superfusion apparatus constructed of 3 mm ID glass tubing. One end was connected, via the silk tie, to a plug constructed of silicone rubber and polyethylene with a platinum wire hook. The other tie was connected to a force-displacement transducer. About 1 g of tension was applied to the tissue, and superfusion with nutrient-buffer solution initiated at 2 ml/minute, using a peristaltic pump. The chambers had platinum electrodes fused through the glass at the top and bottom to allow field stimulation of the tissue.
Before compound testing, tissues were equilibrated for at least 2 hours, during which time stimulation (3 Hz, 0.7 msec pulse duration, 80 V) was applied for 2 minutes at 30 minute intervals. Following this equilibration period, three control stimulations were performed. For each stimulation, two effluent samples were collected directly into 20 ml scintillation vials; one prior to, and one during field stimulation. The basal sample was collected during a 2 minute interval immediately prior to stimulation. The stimulation sample was collected beginning 30 seconds after initiation of stimulation, and continuing for 30 seconds following termination of the field stimulation. This lag period is to allow for the dead space in the superfusion chamber. This collection-stimulation procedure was repeated at 20 minute intervals. Following the third control collection, compound was added into the superfusion flow; 20 minutes later the collection-stimulation was repeated in the presence of compound. Compound concentration was increased ten-fold following each stimulation, and the cycle repeated until four drug concentrations had been tested. A final stimulation-collection was performed after termination of compound superfusion.
Ten ml of standard scintillation fluid (Aquasol-II) was added to all samples, and the DPM values were determined on a beta-scintillation counter. The stimulated/basal release ratio was determined for each pair. The stimulated/basal ratios for the three initial control collections were averaged to obtain a mean control ratio. The compound effect was determined by comparing the stimulated/basal ratio in the presence of increasing compound concentration to the mean control ratio. The EC50 was defined as the compound concentration producing a 50% increase in the stimulated/basal release ratio.
as §2

[5] = Mean arterial blood pressure and heart rate in spontaneously hypertensive rats; format: in vivo; conditions: 1.5 mg/kg intravenously
Method: Further, spontaneously hypertensive rats were dosed, intravenously, at a dose of 1.5 mg/kg, with a solution of one of the compounds of the invention (Compound E, Table I) and mean arterial blood pressure was monitored for 45 minutes using indwelling cannulae positioned in the tail arteries. At the end of the 15 minute infusion, systolic and diasystolic pressures had reached their nadirs and were each approximately 30 to 35 mm Hg below vehicle-treated controls. Thirty minutes following cessation of the infusion, systolic and diasystolic pressures remained approximately 20 mm Hg less than the controls. Also, heart rate was measured during the period blood pressure was monitored.

[6] = thirty minutes following cessation of the infusion

Structure (SMILES) | alpha1 activity compared among compounds D, E and F (in words) [1] | Kb [1] | antagonism in the alpha3 test system (in words) [2] | Kb [2] | Kb ([3]; guinea pig left atrium, clonidine, read-out: KB alpha2 Atrium) | alpha2 effects in guinea pig atrium (in words) [3] | EC50 ([4]; guinea pig vas deferens, concentration producing a 50% increase in the stimulated/basal release ratio, read-out: EC50 alpha2 Vas Def) | alpha2 effects in guinea pig vas deferens (in words) [4] | reflex tachycardia (heart rate) ([5]; heart rate measured during blood pressure monitoring) | diastolic pressure less than controls, after infusion [5, 6] | systolic pressure less than controls, after infusion [5, 6] | separation in the concentrations producing alpha2 and alpha3 effects [2] | Kb [3] | EC50 [4] | alpha3 adrenoceptor selectivity vis-a-vis alpha2 (in words) ([2]; alpha3 vs alpha2, hydrochloride)
CC=COc1ccc(Cl)c2c1CCN(C)CC2 [F, 9-(1-propenyloxy)-6-chloro-3-methyl-2,3,4,5-tetrahydro-1H-3-benzazepine] | similar | 31 nM | potent antagonists | 100 to 200 nM | > 1000 nM | no alpha2 effects | > 10000 nM | no alpha2 effects |  |  |  |  |  |  | 
CC(C)=CCOc1ccc(Cl)c2c1CCN(C)CC2 [Compound E, 9-(3-methyl-2-butenyloxy)-6-chloro-3-methyl-2,3,4,5-tetrahydro-1H-3-benzazepine] | similar | 150 nM | potent antagonists | 37 nM |  | no alpha2 effects |  | no alpha2 effects | No statistically significant reflex tachycardia | approximately 20 mm Hg | approximately 20 mm Hg | ≥ 200 fold | > 10000 nM | > 10000 nM | 
C=CCOc1ccc(Cl)c2c1CCN(C)CC2.Cl [D, 9-allyloxy-6-chloro-3-methyl-2,3,4,5-tetrahydro-1H-3-benzazepine hydrochloride, reference compound] | similar | 150 nM |  | 54 nM |  | significant activity at the alpha2 receptor |  | significant activity at the alpha2 receptor |  |  |  | four | 903 nM | 224 nM | does not approach the high degree of specificity exhibited by the presently invented compounds; also recorded: insignificant alpha3 -adrenoceptor selectivity
